Data taken from ChEMBL document CHEMBL1921689, “Synthesis and biological profile of new 1,2,3,4-tetrahydroisoquinolines as selective carbonic anhydrase inhibitors” (Bioorg Med Chem, 2011).

Molecular target: Carbonic anhydrase 9 (Homo sapiens, UniProt Q16790)
Test: Inhibition of human CA9 catalytic domain preincubated for 15 mins by stopped flow CO2 hydration assay

`COc1ccc2c(c1)CCN(S(N)(=O)=O)C2c1ccccc1` (racemic) was tested. Which Ki did it give?
Its Ki is 78 nM.

For `COc1ccc2c(c1)CCN(S(N)(=O)=O)C2c1ccc([N+](=O)[O-])cc1` (racemic), which Ki is on record?
The Ki was 5 nM.

`COc1ccc2c(c1)CCN(S(N)(=O)=O)C2c1ccc(C)cc1` (racemic) was tested. Which Ki did it give?
Its Ki is 7.5 nM.

How did the Ki turn out when `COc1ccc2c(c1)CCN(S(N)(=O)=O)C2c1ccc(F)cc1` (racemic) was run?
Its Ki is 31 nM.

How did the Ki turn out when `COc1ccc2c(c1)CCN(S(N)(=O)=O)C2c1ccc(Br)cc1` (racemic) was run?
Its Ki is 60.7 nM.

`COc1ccc2c(c1)CCN(S(N)(=O)=O)C2c1ccc(C#N)cc1` (racemic) was tested. Which Ki did it give?
The Ki was 7 nM.

`COc1ccc2c(c1)CCN(S(N)(=O)=O)C2c1ccc(N)cc1` (racemic) was tested. Which Ki did it give?
Its Ki is 12 nM.

How did the Ki turn out when `COc1ccc2c(c1)CCN(S(N)(=O)=O)C2c1cccc(N)c1` (racemic) was run?
The Ki was 18 nM.

How did the Ki turn out when `COc1ccc2c(c1)CCN(S(N)(=O)=O)C2c1cccc([N+](=O)[O-])c1` (racemic) was run?
The Ki was 16 nM.
